Results as given in patent US3981903A, “Cyclopropane carboxylic acid esters” (Sumitomo Chemical Company, Limited, priority 1973, dated 1976).
Values after ≈ are worked out from the molar mass of the structure shown.

Experiments:
Format in all cases: in vivo
[1] = system: diamondback moths; test: Test Example 2: pesticidal effects on diamondback moth larvae, sprayed Chinese cabbage; details: for LC50: Plutella xylostella, 48 h, fourth instar larvae, after 2 days, from 20 % emulsifiable concentrates, read-out: LC50 (50 % lethal concentration); for Ratio of effect: relative to DDVP, defined as 1.0
Protocol: The present compounds (1), (2), (3) and (4) were individually formulated according to ordinary procedure into 20 % emulsifiable concentrates. As a control, DDVP was also formulated into a 20 % emulsifiable concentrate.
Each of the above-mentioned emulsifiable concentrates was diluted with water to a test concentration, and 10 ml. of the resulting dilution was sprayed to the potted Chinese cabbages at the stage of 3 to 4 leaves. Subsequently, the cabbage leaves were put in a glass Petri dish of 14 cm. in diameter and 7 cm. in height, and 10 diamondback moth larvae at the fourth instar stage were liberated into the dish. After 2 days, the number of dead and alive larvae was counted to calculate the value of LC50 (50 % lethal concentration).

[2] = system: green rice leafhoppers; test: Test Example 1: pesticidal effect on green rice leafhoppers, sprayed rice seedlings; details: for Mortality: 20 % emulsifiable concentrate diluted to 200 times, next day, 1440 min; for KT50 (50 % knock-down time): 20 % emulsifiable concentrate diluted with water to 200 times
Protocol: The present compounds (1), (2), (3), (4), (5) and (6) were individually formulated according to ordinary procedure into 20 % emulsifiable concentrates. As a standard compound, 3,4-dimethylphenyl-N-methyl carbamate [hereinafter referred to as "Meobal" (registered trademark of Sumitomo Chemical Co., Ltd.)] was also formulated into a 20 % emulsifiable concentrate.
In flower pots of 9 cm. in diameter, about 20 rice seedlings per pot were grown to the stage of 3 to 4 leaves. Each of the above-mentioned emulsifiable concentrates was diluted with water to 200 times, and sprayed to the seedlings by use of a turn table. After air-drying, the seedlings were put in a 5 liter glass beaker, which was then covered at the top with gauze. Thereafter, 20 green rice leafhoppers were liberated into the beaker, and the number of knocked down insects was counted with lapse of time to calculate the value of KT50 (50 % knock-down time). On the next day, the number of dead and alive insects was counted to calculate the mortality.

[3] = system: housefly adults; test: Test Example 3: pesticidal effects on housefly adults, Campbell's turn table, 0.2 % oil preparations; details: 0.2 % oil preparation, 5 ml, present compounds as dl-trans isomers; for mortality at 0.2 %: Musca domestica, 24 h, after a day
Protocol: dl-Trans isomers of the present compounds (1), (2), (3) and (4) were individually formulated by use of deodorized kerosene into 0.2 % oil preparations. As a control, pyrethrin was also formulated into a 0.2 % oil preparation.
Using the Campbell's turn table [Soap and Sanitary Chemicals; Vol. 14, No. 119 (1938)], 5 ml. of each of the above-mentioned oil preparations was sprayed. When 20 seconds had elapsed after the spraying, the shutter was opened, and a group of about 100 housefly adults were exposed to the settling mist for 10 minutes. Subsequently, the number of knocked down houseflies was counted to calculate the knock-down ratio. The houseflies were then transferred to another cage, fed and allowed to stand for a day at room temperature. Thereafter, the number of dead and alive houseflies was counted to calculate the mortality.

SMILES | LC50 [1] | Ratio of effect [1] | Mortality [2] | KT50 (50 % knock-down time) [2] | Ratio of knocked down houseflies after 10 minutes [3] | mortality at 0.2 % [3]
CC1(C)C(C=C(Cl)Cl)C1C(=O)OC/C=C(\Cl)Cc1ccccc1 (stereo not drawn) [(1), 3-Chloro-4-phenyl-trans-2-butene-1-yl 2',2'-dimethyl-3'-(2",2"-dichlorovinyl)-cyclopropanecarboxylate] | 43 µg/mL (≈ 115 µM) | 8.6 | 100% | 19 min | 100% | 100%
CC1(C)C(C=C(Cl)Cl)C1C(=O)OCC=C(Cl)Cc1ccccc1 (stereo not drawn) [(5), 3-Chloro-4-phenyl-trans-2-butene-1-yl d-trans-2',2'-dimethyl-3' -(2",2"-dichlorovinyl)-cyclopropanecarboxylate] |  |  | 100% | 9 min |  | 
CC(=CCOC(=O)C1C(C=C(Cl)Cl)C1(C)C)Cc1ccccc1 (stereo not drawn) [(4), 3-Methyl-4-phenyl-2-butene-1-yl 2',2'-dimethyl-3'-(2",2"-dichlorovinyl)-cyclopropanecarboxylate] | 75 µg/mL (≈ 212 µM) | 4.9 | 100% | 15 min | 100% | 98%
CC1(C)C(C=C(Cl)Cl)C1C(=O)OC/C=C/Cc1ccccc1 (stereo not drawn) [(3), 4-Phenyl-trans-2-butene-1-yl 2',2'-dimethyl-3'-(2",2"-dichlorovinyl)-cyclopropanecarboxylate] | 48 µg/mL (≈ 141 µM) | 7.7 | 100% | 11 min | 100% | 100%
COP(=O)(OC)OC=C(Cl)Cl [DDVP, 0,0-Dimethyl 0-2,2-dichlorovinyl phosphate, reference compound] | 370 µg/mL |  |  |  |  | 
CC1(C)C(C=C(Cl)Cl)C1C(=O)OC/C=C(\Br)Cc1ccccc1 (stereo not drawn) [(2), 3-Bromo-4-phenyl-trans-2-butene-1-yl 2',2'-dimethyl-3'-(2",2"-dichlorovinyl)-cyclopropanecarboxylate] | 56 µg/mL (≈ 134 µM) | 6.6 | 100% | 13 min | 100% | 99%
CNC(=O)Oc1ccc(C)c(C)c1 [Meobal, 3,4-dimethylphenyl-N-methyl carbamate, reference compound] |  |  |  | 24 min |  | 
CC1(C)C(C=C(Cl)Cl)C1C(=O)OC/C(Cl)=C(\Cl)Cc1ccccc1 (stereo not drawn) [(6), 2,3-Dichloro-4-phenyl-trans-2-butene-1-yl 2',2'-dimethyl-3'-(2",2"-dichlorovinyl)-cyclopropanecarboxylate] |  |  | 100% | 21 min |  | 
